Source: US20220177533A1, “Recombinant TGF a for wound healing purposes, and the process thereof” (SREE CHITRA TIRUNAL INSTITUTE FOR MEDICAL SCIENCES AND …, priority 2018, published 2022)

Legend:
L929 cells = assay: MTT assay in L929 cells; format: cell-based; details: for cell viability: MTT, L929 cells
Procedure: Prior testing in said in vivo model, an in vitro testing for the metabolic activity has been performed through executing MTT assay in a specific cell line.
The MTT assay is carried out in L929 cells (ATCC, USA). […] 92.26%, 90.30% and 88.87% under these concentrations respectively. […] The results obtained are depicted in FIG. 3.

[1] = test system: skin (intra-cutaneous reactions); set-up: species or system rabbits (New Zealand White); details: rabbit, in vivo
Excerpt: (§1) The declaration for skin irritation test is hereby made as the recombinant TGFα induced a total mean score of ‘0.55’ in test material and ‘◯’ in solvent following intra-dermal injection.
(§2) For this study, 23 rabbits (New Zealand White) are taken and kept in a well-fed, healthy and aseptic condition to ensure the perfect outcome of the experimentation.

rabbit wounds = assay: Wound healing study in rabbits, 4×4 cm incision on the back; format: in vivo, rabbits (New Zealand White)
Excerpt: as §2
Nine randomly selected rabbits (New Zealand White) are taken and a 4×4 cm incision was made right on the back of the animals. Following the application of Anesthetic Ketamine (Aneket, Neon Laboratories, India). This has been followed by application of recombinant TGFα to the “treated” group, and application of placebo, wherein except the growth factor, all the other conditions of “treated” group is followed.
It is found to initiate cell proliferation in rabbit wounds within 7 days. […] Thus, the recombinant growth factor TGF α found to be suitable for enhancing the healing of chronic wounds.

[2] = Antimicrobial / sterility test on test material
Excerpt: On the safety side, recombinant TGF α passed the skin irritation test, sterility test and cytotoxicity tests, and found to be suitable for enhancing the healing of chronic wounds.
as §1

For “recombinant TGF α: recombinant TGF α of 51 amino acids (Sequence ID No.: 1), carved out of 160 amino acid TGF α, expressed in a prokaryotic system”, which cytotoxicity tests outcome (L929 cells) is on record?
Its cytotoxicity tests outcome is “passed”.

And the cell viability (L929 cells; 0.0025 μg/ml)?
The cell viability was 92.16%.

What about the cell viability (L929 cells; 0.025 μg/ml) of the same substance?
The cell viability was 92.26%.

And the cell viability (L929 cells; 0.25 μg/ml)?
The cell viability was 90.30%.

And the cell viability (L929 cells; 2.5 μg/ml)?
Its cell viability is 88.87%.

What about the “intra-cutaneous reactions (erythema and edema)” value [1] of the same substance?
Its value is “No intra-cutaneous reactions such as erythema and edema”.

What about the “skin irritation test outcome” value [1] of the same substance?
Its value is “passed”.

What about the “total mean score, skin irritation test” value [1] of the same substance?
The value was 0.55.

And the “healing of chronic wounds” value (rabbit wounds; rabbit models)?
The value was “enhance the healing of chronic wounds”.

What about the “wound finding on 14th day” value (rabbit wounds; rabbit models, day 14) of the same substance?
The value was “tissue regeneration and formation of epithelial layer”.

What about the “time to initiation of cell proliferation in rabbit wounds” value (rabbit wounds; rabbit, 4×4 cm incision) of the same substance?
The value was ≤ 7 days.

What about the “vasculature and inflammatory response of the healing wound” value (rabbit wounds; treated vs control, FIGS. 4C and 4T) of the same substance?
Its value is “higher number of vasculature and almost no inflammatory response”.

And the antimicrobial test outcome [2]?
Its antimicrobial test outcome is “meeting the requirements for dermal applications”.

What about the sterility test outcome [2] of the same substance?
Its sterility test outcome is “passed”.
